The data set in a line: HILIC, Waters ACQUITY UPLC BEH Amide, 100 × 2.1 mm, 1.7 µm; A: water + 0.125% formic acid + 10 mM ammonium formate; B: 5% water + 95% acetonitrile + 0.125% formic acid + 10 mM ammonium formate; gradient (min/%B) 0/100 2/100 7.7/70 9.5/40 10.25/30 12.75/100 17/100. The following applies: stereoisomer not certain.
As to `COc1ccc2c(c1OC)C(=O)OC2C1c2c(cc3c(c2OC)OCO3)CCN1C` (centres undefined) [Noscapine], the LC retention time was found to be 1.31 min.
The same measure for `CC(=O)OCC[C@H](N)C(=O)O` [O-Acetyl-L-homoserine]: 7.6 min; for `CC(=O)OCC(N)C(=O)O` (centres undefined) [O-Acetylserine]: 7.67 min.
With `NCCOP(=O)(O)O` [O-Phosphocolamine], the LC retention time came out at 9.23 min.
The same measure for `NC(COP(=O)(O)O)C(=O)O` (centres undefined) [O-Phosphoserine]: 9.85 min.
The same measure for `NC(CCOC(=O)CCC(=O)O)C(=O)O` (centres undefined) [O-Succinylhomoserine]: 8.06 min; for `O=C(O)CCCCCCCCCCCCCCCCC(=O)O` [Octadecanedioic acid]: 1.24 min.
As for `CCCCCCCC=O` [Octanal], the figure is 6.98 min.
Regarding `CCCCCCCCO` [Octanol], the LC retention time is 8.47 min.
As for `CC(NC(CCCN=C(N)N)C(=O)O)C(=O)O` (centres undefined) [Octopine], the figure is 10.3 min.
In the case of `Cc1cc2c(s1)Nc1ccccc1N=C2N1CCN(C)CC1` [Olanzapine], the LC retention time was 4.56 min.
As for `CCCc1nc(C(C)(C)O)c(C(=O)O)n1Cc1ccc(-c2ccccc2-c2nn[nH]n2)cc1` [Olmesartan], the figure is 4.76 min; as for `CN(C)CCC=C1c2ccccc2COc2ccc(CC(=O)O)cc21` [Olopatadine], 4.41 min; as for `COc1ccc2nc(S(=O)Cc3ncc(C)c(OC)c3C)[nH]c2c1` (centres undefined) [Omeprazole], 1.35 min.
Consider `Cc1nccn1CC1CCc2c(c3ccccc3n2C)C1=O` (centres undefined) [Ondansetron], for which the LC retention time was determined as 2.83 min.
As for `CCCCCCCCCCCC(CC1OC(=O)C1CCCCCC)OC(=O)C(CC(C)C)NC=O` (centres undefined) [Orlistat], the figure is 0.89 min; as for `COc1cc(C)c(Cc2cnc(N)nc2N)cc1OC` [Ormetroprim], 4.19 min.
As for `Cc1ncc([N+](=O)[O-])n1CC(O)CCl` (centres undefined) [Ornidazole], the figure is 1.08 min.
The same measure for `NCCCC(N)C(=O)O` (centres undefined) [Ornithine]: 9.6 min; for `Nc1ccccc1S(=O)(=O)O` [Orthanilic acid]: 2.52 min.
In the case of `CCN(CC)CC1CCCCN1CC(=O)N1c2ccccc2C(=O)Nc2cccnc21` (centres undefined) [Otenzepad], the LC retention time was 2.94 min.
As for `O=C(O)CCc1nc(-c2ccccc2)c(-c2ccccc2)o1` [Oxaprozin], the figure is 1.11 min.
The same measure for `O=C1Nc2ccc(Cl)cc2C(c2ccccc2)=NC1O` (centres undefined) [Oxazepam]: 1.37 min; for `Clc1ccc(CON=C(Cn2ccnc2)c2ccc(Cl)cc2Cl)c(Cl)c1` [Oxiconazole]: 1.08 min; for `COc1ccc2c3c1OC1C(=O)CCC4(O)C(C2)N(C)CCC314` (centres undefined) [Oxycodone]: 4.58 min.
The same measure for `CN1CCC23c4c5ccc(O)c4OC2C(=O)CCC3(O)C1C5` (centres undefined) [Oxymorphone]: 5.5 min.
Take `CC[N+](C)(CC)CCOC(=O)C(O)(c1ccccc1)C1CCCCC1` (centres undefined) [Oxyphenonium]: the LC retention time was determined as 2.01 min.
As for `O=C(O)C=Cc1ccc(Cn2ccnc2)cc1` [Ozagrel], the figure is 2.99 min.
`COc1ccc(C(=O)O)cc1` [P-Anisic acid]: the LC retention time worked out at 1.3 min.
With `CCCCCCCCCCCCCCCC(=O)OC(CC(=O)[O-])C[N+](C)(C)C` (centres undefined) [Palmitoylcarnitine cation], the LC retention time stood at 3.23 min.
Consider `O=C1c2cccc3c2C(CCC3)CN1C1CN2CCC1CC2` (centres undefined) [Palonosetron], for which the LC retention time is 4.05 min.
The same measure for `CC(C)(CO)C(O)C(=O)NCCCO` (centres undefined) [Panthenol]: 1.9 min; for `COc1ccnc(CS(=O)c2nc3ccc(OC(F)F)cc3[nH]2)c1OC` (centres undefined) [Pantoprazole]: 1.21 min.
The same measure for `CC(C)(CO)C(O)C(=O)NCCC(=O)O` (centres undefined) [Pantothenic acid]: 3.5 min.
As for `COc1ccc(Cc2nccc3cc(OC)c(OC)cc23)cc1OC` [Papaverine], the figure is 1.54 min; as for `CCOP(=O)(OCC)Oc1ccc([N+](=O)[O-])cc1` [Paraoxon], 1.02 min; as for `CCC(=O)NS(=O)(=O)c1ccc(-c2c(-c3ccccc3)noc2C)cc1` [Parecoxib], 0.98 min.
As to `Fc1ccc(C2CCNCC2COc2ccc3c(c2)OCO3)cc1` (centres undefined) [Paroxetine], the LC retention time is 3.08 min.
With `CC1COc2c(C3(N)CC3)c(F)cc3c(=O)c(C(=O)O)cn1c23` (centres undefined) [Pazufloxacin], the LC retention time is 2.49 min.
The same measure for `CCn1cc(C(=O)O)c(=O)c2cc(F)c(N3CCN(C)CC3)cc21` [Pefloxacin]: 3.65 min; for `N=C1NC(=O)C(c2ccccc2)O1` (centres undefined) [Pemoline]: 1.39 min.
As for `Nc1nc2c(ncn2CCC(CO)CO)c(=O)[nH]1` [Penciclovir], the LC retention time came out at 6.71 min.
The same measure for `CC(C)=CCN1CCC2(C)c3cc(O)ccc3CC1C2C` (centres undefined) [Pentazocine]: 2.65 min.
As for `CC(=O)CCCCn1c(=O)c2c(ncn2C)n(C)c1=O` [Pentoxifylline], the LC retention time was 1.09 min.
As for `CCCN1CC(CSC)CC2c3cccc4[nH]cc(c34)CC21` (centres undefined) [Pergolide], the figure is 2.41 min; as for `O=C1C2CCCCC2C(=O)N1CCCCN1CCN(c2nsc3ccccc23)CC1` (centres undefined) [Perospirone], 2.14 min; as for `COc1cc(-c2[o+]c3cc(O)cc(O)c3cc2OC2OC(CO)C(O)C(O)C2O)cc(O)c1O` (centres undefined) [Petunidin-3-glucoside], 4.47 min.
Regarding `CC1C(c2ccccc2)OCCN1C` (centres undefined) [Phendimetrazine], the LC retention time amounted to 2.52 min.
As for `NNCCc1ccccc1` [Phenelzine], the figure is 4.45 min.
As for `CC(=O)OCCc1ccccc1` [Phenethylacetate], the figure is 1.02 min; as for `NCCc1ccccc1` [Phenethylamine], 4.87 min.
In the case of `CC1NCCOC1c1ccccc1` (centres undefined) [Phenmetrazine], the LC retention time was found to be 4.04 min.
The same measure for `NC(=O)OCCCc1ccccc1` [Phenprobamate]: 1.01 min; for `CC(C)(N)Cc1ccccc1` [Phentermine]: 6.23 min; for `O=CCc1ccccc1` [Phenylacetaldehyde]: 5.4 min.
As for `NC(=O)CCC(NC(=O)Cc1ccccc1)C(=O)O` (centres undefined) [Phenylacetylglutamine], the figure is 6.03 min; as for `O=C(O)CNC(=O)Cc1ccccc1` [Phenylacetylglycine], 2.88 min.
As for `NCC(O)c1ccccc1` (centres undefined) [Phenylethanolamine], the figure is 5.51 min.
Turning to `O=P(O)(O)Oc1ccccc1` [Phenylphosphoric acid], the LC retention time amounted to 7.05 min.
Regarding `CC(N)C(O)c1ccccc1` (centres undefined) [Phenylpropanolamine], the LC retention time was found to be 5.29 min.
Consider `O=C(CCc1ccc(O)cc1)c1c(O)cc(O)cc1O` [Phloretin], for which the LC retention time is 1.5 min.
On to `O=C(c1ccccc1)c1c(O)cc(O)cc1O` [Phlorobenzophenone], for which the LC retention time came out at 1.34 min.
As for `Oc1cc(O)cc(O)c1` [Phloroglucinol], the figure is 1.15 min; as for `C=C(OP(=O)(O)O)C(=O)O` [Phosphoenolpyruvic acid], 9.05 min; as for `O=C(O)CP(=O)(O)O` [Phosphonoacetic acid], 9.73 min.
As for `NC(Cc1ccc(OP(=O)(O)O)cc1)C(=O)O` (centres undefined) [Phosphotyrosine], the figure is 9.72 min; as for `O=C(O)c1ccccc1C(=O)O` [Phthalic acid], 1.15 min.
On to `CNC(=O)Oc1ccc2c(c1)C1(C)CCN(C)C1N2C` (centres undefined) [Physostigmine], for which the LC retention time came to 3.17 min.
As for `CCCCCCCCCCCCCCC(O)C(O)C(N)CO` (centres undefined) [Phytosphingosine], the figure is 5.18 min.
The same measure for `CC(C)(O)C1C2OC(=O)C1C1(O)CC3OC34C(=O)OC2C14C` (centres undefined) [Picrotin]: 1.21 min; for `O=C1CCC(C(=O)N2CSCC2C(=O)O)N1` (centres undefined) [Pidotimod]: 7.3 min.
As for `CCC1C(=O)OCC1Cc1cncn1C` (centres undefined) [Pilocarpine], the figure is 2.23 min.
`CC(N=C(NC#N)Nc1ccncc1)C(C)(C)C` (centres undefined) [Pinacidil]: the LC retention time was determined as 1.49 min.
The same measure for `CCc1ccc(CCOc2ccc(CC3SC(=O)NC3=O)cc2)nc1` (centres undefined) [Pioglitazone]: 1.11 min; for `O=C(O)C1CCCCN1` (centres undefined) [Pipecolic acid]: 7.83 min.
The same measure for `O=C(C=CC=Cc1ccc2c(c1)OCO2)N1CCCCC1` [Piperine]: 1.1 min; for `Cc1nc2ccccn2c(=O)c1CCN1CCC(C(=O)c2ccc(F)cc2)CC1` [Pirenperone]: 3.5 min.
On to `CN1C(C(=O)Nc2ccccn2)=C(O)c2ccccc2S1(=O)=O` [Piroxicam], for which the LC retention time came to 1.02 min.
As for `O=C(O)CC(O)CC(O)C=Cc1c(C2CC2)nc2ccccc2c1-c1ccc(F)cc1` (centres undefined) [Pitavastatin], the figure is 1.36 min; as for `CN1CCC(=C2c3ccccc3CCc3sccc32)CC1` [Pizotifen], 2.33 min.
The same measure for `NCc1[nH]cc(CCC(=O)O)c1CC(=O)O` [Porphobilinogen]: 7.4 min; for `CCCNC1CCc2nc(N)sc2C1` (centres undefined) [Pramipexole]: 5.7 min.
As for `CCC(C)C(=O)OC1CC(O)C=C2C=CC(C)C(CCC(O)CC(O)CC(=O)O)C21` (centres undefined) [Pravastatin], the figure is 1.8 min.
For the molecule `O=C1CN=C(c2ccccc2)c2cc(Cl)ccc2N1CC1CC1` [Prazepam], the LC retention time stood at 1.07 min.

Values taken from the RepoRT retention time repository.
